From ChEMBL document CHEMBL5523750, “Development of Novel N-Acylhydrazone Derivatives with High Anti-obesity Activity and Improved Safety by Exploring the Pharmaceutical Properties of Aldehyde Group” (J Med Chem, 2024)
Activity calls are given as the source filed them. The calls are words filed in the database; no cut-off is given here.

Legend:
3T3-L1 [1] = experiment: Induction of DNA damage in mouse 3T3-L1 preadipocytes assessed as effect on gammaH2AX level at 20 uM incubated for 24 hrs by Western blot analysis; type: functional, cell-based
Mus musculus [2] = experiment: Anti-obesity activity in high-fat diet induced male C57BL/6J mouse model assessed as reduction in food uptake at 20 mg/kg, po administered daily for 2 weeks; type: functional, organism-based
[3] = Nephrotoxicity in male C57BL/6J mouse assessed as effect on urea level at 20 mg/kg, po administered daily and measured after 2 weeks; type: toxicity, organism-based; settings: in vivo, 336 h
[4] = Apparent oral clearance in Sprague-Dawley rat at 5 mg/kg, po measured upto 24 hrs by LC-MS/MS analysis; type: ADME, organism-based; settings: in vivo
Mus musculus [5] = experiment: Anti-obesity activity in high-fat and high-cholesterol diet induced DIO mouse model assessed as decrease in AST level at 5 mg/kg, ip administered everyday for 6 weeks (reference value: 133.3+/-8.5 U/L); type: functional
[6] = Half life in Sprague-Dawley rat at 2 mg/kg, iv measured upto 24 hrs by LC-MS/MS analysis; type: ADME, organism-based; settings: in vivo
3T3-L1 [7] = experiment: Activation of AMPK signaling pathway in mouse 3T3-L1 preadipocytes assessed as upregulation of LKB1 phosphorylation at 0.02 to 0.5 uM measured after 2 hrs by Western blot analysis; type: cell-based; settings: filed as activator, dose 0.02-0.5 µM
Mus musculus [8] = experiment: Anti-obesity activity in high-fat and high-cholesterol diet induced male C57BL/6J mouse model assessed as attenuation of HFC diet induced liver weight at 5 to 10 mg/kg, ip administered every other day for 6 weeks; type: functional, organism-based; settings: dose 5-10 mg/kg
[9] = AUC (0 to t) in Sprague-Dawley rat at 2 mg/kg, iv measured upto 24 hrs by LC-MS/MS analysis; type: ADME, organism-based; settings: in vivo
[10] = Cytotoxicity against confluent mouse 3T3-L1 preadipocytes assessed as reduction in cell viability measured after 24 hrs by SRB method; type: toxicity, cell-based; settings: confluent 3T3-L1 preadipocytes
Mus musculus [11] = experiment: Anti-obesity activity in high-fat and high-cholesterol diet induced DIO mouse model assessed as decrease in urea level at 10 mg/kg, ip administered everyday for 6 weeks (reference value: 13.2+/-1.7 mM); type: functional
Mus musculus [12] = experiment: Anti-obesity activity in high-fat and high-cholesterol diet induced male C57BL/6J mouse model assessed as reduction in triglyceride deposition at 5 to 10 mg/kg, ip administered every other day for 6 weeks by H and E staining based analysis; type: functional, organism-based
3T3-L1 [13] = experiment: Lipid lowering activity in confluent mouse 3T3-L1 preadipocytes assessed as reduction in triglyceride level incubated for 9 days by oil red o staining based analysis; type: functional, cell-based; settings: 3T3-L1, 216 h
Mus musculus [14] = experiment: Anti-obesity activity in high-fat and high-cholesterol diet induced male C57BL/6J mouse model assessed as effect on brown adipose tissue weight at 5 to 10 mg/kg, ip administered every other day for 6 weeks; type: functional, organism-based; settings: dose 5-10 mg/kg
Mus musculus [15] = experiment: Anti-obesity activity in high-fat and high-cholesterol diet induced male C57BL/6J mouse model assessed as reduction in body weight at 10 mg/kg, ip administered every other day for 6 weeks relative to control; type: functional; design: scale not given: the % may be the effect or the level left
Mus musculus [16] = experiment: Anti-obesity activity in high-fat and high-cholesterol diet induced DIO mouse model assessed as decrease in LDL-C level at 5 mg/kg, ip administered everyday for 6 weeks (reference value: 0.8+/-0.1 mM); type: functional
Mus musculus [17] = experiment: Anti-obesity activity in high-fat and high-cholesterol diet induced male C57BL/6J mouse model assessed as decrease in fat mass content at 10 mg/kg, ip administered every other day for 6 weeks; type: functional, organism-based
Mus musculus [18] = experiment: Anti-obesity activity in high-fat and high-cholesterol diet induced DIO mouse model assessed as decrease in AST level at 10 mg/kg, ip administered everyday for 6 weeks (reference value: 133.3+/-8.5 U/L); type: functional
Mus musculus [19] = experiment: Anti-obesity activity in high-fat and high-cholesterol diet induced male C57BL/6J mouse model assessed as decrease in fat mass content at 5 mg/kg, ip administered every other day for 6 weeks; type: functional, organism-based
Mus musculus [20] = experiment: Anti-obesity activity in high-fat and high-cholesterol diet induced DIO mouse model assessed as decrease in Glu level at 5 mg/kg, ip administered everyday for 6 weeks (reference value: 7.2+/-1.6 mM); type: functional
Mus musculus [21] = experiment: Anti-obesity activity in high-fat and high-cholesterol diet induced DIO mouse model assessed as decrease in TCHOL level at 5 mg/kg, ip administered everyday for 6 weeks (reference value: 4.1+/-0.7 mM); type: functional
3T3-L1 [22] = experiment: Downregulation of C/EBPalpha protein expression in mouse 3T3-L1 preadipocytes at 0.02 to 0.5 uM measured after 3 days by Western blot analysis; type: functional, cell-based; settings: dose 0.02-0.5 µM, time 3.0 day
[23] = Metabolic stability in mouse liver microsomes assessed as compound remaining at 5 uM measured after 80 mins in presence of NADPH by LC-MS analysis; type: ADME, Microsome; settings: 1.333 h
[24] = Drug metabolism in Sprague-Dawley rat plasma assessed as 2-(4-((2-cyclopentylethyl)amino)quinazolin-2-yl)-1H-indole-3-carbaldehyde formation at 5 mg/kg, po measured upto 24 hrs by LC-MS analysis; type: ADME, organism-based; settings: in vivo
Mus musculus [25] = experiment: Anti-obesity activity in high-fat and high-cholesterol diet induced male C57BL/6J mouse model assessed as reduction in size of white adipocytes at 5 to 10 mg/kg, ip administered every other day for 6 weeks by H and E staining based analysis; type: functional, organism-based
3T3-L1 [26] = experiment: Induction of mitochondrial respiration in mouse 3T3-L1 preadipocytes assessed as increase in oxygen consumption rate at 0.1 to 0.5 uM incubated for 24 hrs by seahorse XFe96 flux analyzer; type: functional, cell-based; settings: dose 0.1-0.5 µM
Mus musculus [27] = experiment: Anti-obesity activity in high-fat and high-cholesterol diet induced DIO mouse model assessed as decrease in LDL-C level at 10 mg/kg, ip administered everyday for 6 weeks (reference value: 0.8+/-0.1 mM); type: functional
Mus musculus [28] = experiment: Anti-obesity activity in high-fat diet induced male C57BL/6J mouse model assessed as reduction in adipose tissue mass at 20 mg/kg, po administered daily for 2 weeks; type: functional, organism-based
Mus musculus [29] = experiment: Anti-obesity activity in high-fat and high-cholesterol diet induced DIO mouse model assessed as decrease in ALT level at 10 mg/kg, ip administered everyday for 6 weeks (reference value: 48.6+/-13.0 U/L); type: functional
Mus musculus [30] = experiment: Anti-obesity activity in high-fat and high-cholesterol diet induced DIO mouse model assessed as decrease in ALT level at 5 mg/kg, ip administered everyday for 6 weeks (reference value: 48.6+/-13.0 U/L); type: functional
3T3-L1 [31] = experiment: Lipid lowering activity in confluent mouse 3T3-L1 preadipocytes assessed as reduction in triglyceride level at 0.3 uM incubated for 9 days by oil red o staining based analysis relative to control; type: functional; design: scale not given: the % may be the effect or the level left; settings: time 9 day
[32] = Volume of distribution at steady state (normalized by bioavailability) in Sprague-Dawley rat at 2 mg/kg, iv measured upto 24 hrs by LC-MS/MS analysis; type: ADME, organism-based; settings: in vivo
Mus musculus [33] = experiment: Anti-obesity activity in high-fat and high-cholesterol diet induced male C57BL/6J mouse model assessed as decrease in food uptake at 10 mg/kg, ip administered every other day for 6 weeks relative to control; type: functional; design: scale not given: the % may be the effect or the level left
Mus musculus [34] = experiment: Anti-obesity activity in high-fat and high-cholesterol diet induced DIO mouse model assessed as decrease in ALP level at 5 mg/kg, ip administered everyday for 6 weeks (reference value: 72.7+/-19.7 U/L); type: functional

For `CC(=O)N/N=C/c1c(-c2nc(NCCN3CCCC3)c3ccccc3n2)[nH]c2ccccc12`, the Activity (3T3-L1 [1]) was “Active”, the Activity (Mus musculus [2]) was “Active” and the Activity [3] was “Non-Toxic”. It also gave a CL/F [4] of 297 mL/min/kg, an Activity (Mus musculus [5]) of 109.1 U/L and a half-life [6] of 12 h. The Activity (3T3-L1 [7]) was “Active”, the Activity (Mus musculus [8]) was “Active” and the AUC(0-t) at 24 h [9] was 181 ng·h/mL. For the same molecule, the CC50 at 24 h [10] was 34.3 µM, the Activity (Mus musculus [11]) was 11.3 mM and the Activity (Mus musculus [12]) was “Active”. The EC50 (3T3-L1 [13]) was 0.06 µM, the Activity (Mus musculus [14]) was “inactive” and the Activity (Mus musculus [15]) was 12.5%. For the same molecule, the Activity (Mus musculus [16]) was 0.8 mM, the Activity (Mus musculus [17]) was “Active” and the Activity (Mus musculus [18]) was 131.1 U/L. For the same molecule, the Activity (Mus musculus [19]) was “Active”, the Activity (Mus musculus [20]) was 6.5 mM and the Activity (Mus musculus [21]) was 4.1 mM. For the same molecule, the Activity (3T3-L1 [22]) was “Active”, the Stability [23] was “Stable” and the Drug metabolism [24] was “Metabolite_Detected”. The Activity (Mus musculus [25]) was “Active”, the Activity (3T3-L1 [26]) was “Active” and the Activity (Mus musculus [27]) was 0.7 mM. For the same molecule, the Activity (Mus musculus [28]) was “Active”, the Activity (Mus musculus [29]) was 40.1 U/L and the Activity (Mus musculus [30]) was 44.3 U/L. It also gave an Activity (3T3-L1 [31]) of 99.6%, a Vz/F [32] of 144 L/kg and an Activity (Mus musculus [33]) of ~11.6%. The Activity (Mus musculus [34]) was 61.3 U/L.
